# Laboratory results from article PMC6270258, “Diosgenone Synthesis, Anti-Malarial Activity and QSAR of Analogues of This Natural Product” (Molecules, 2013).
# Like-named read-outs stand apart in the source and are kept apart here.
# Columns and labels:
# [1] = Cytotoxicity, MTT colorimetric test; format: cell-based, human; settings: human
# Experimental: (§1) Steroidal derivatives’ cytotoxicity regarding the HepG2-A16 cell line was evaluated by colorimetric test using 3-(4,5-dimethylthiazolyl-2)-2,5-diphenyltetrazolium bromide (MTT), as described by Mosmann [28]. […] An aliquot of each derivative dilution (100 μL, 1,000, 100, 10 and 1 μg/mL) was then added to the wells in triplicate. […] The DMSO diluent agent was evaluated in complete medium and negative controls (untreated cells) were included. Absorbance was measured at 550 nm and statistical Prism software version 5.0 (GraphPad Software Inc., La Jolla, CA, USA) was used for calculating toxic concentration (CC50). Amphotericin B was used as positive control in this assay.
# [2] = system: Plasmodium falciparum FCB-2 (chloroquine-resistant) strain; assay: In vitro antiplasmodial activity, [3H]hypoxanthine incorporation, FCB-2 strain; format: cell-based; settings: for antiplasmodial activity (in words): P. falciparum FCB-2 and NF-54 strains, compared to diosgenone or parent; for IC50: Plasmodium falciparum, 48 h; for RI (resistance index): IC50 FCB-2 (resistant strain)/IC50 NF-54 (sensitive strain)
# Experimental: (§2) A 10 mg/mL stock solution was prepared. […] A 50 μL sample was extracted from this solution and adjusted to 1,000 μL with RPMI-1640 without hypoxanthine until a final 500 μg/mL concentration was reached. The P. falciparum FcB-2 (Colombia) and NF54 (The Netherlands) strains were used for assessing anti-malarial activity.
# (§3) Trager and Jensen’s method was used for culturing strains [24, 25]. The methods described by Desjardins et al. [26] were used for evaluating the structural analogs’ in vitro antiplasmodial activity, with some modifications. […] 1.0 µCi/mL of [3H] hypoxanthine (MP Biomedicals, Santa Ana, CA, USA) was added to each well and the plates were then incubated for 48 h at 37 °C in 5% CO2, 5% O2 in a balanced N2 atmosphere. Parasite DNA was harvested and radioactivity was determined by automatic TDCR liquid scintillation counter plate (Chameleon, Hidex Oy, Finland). Experiments were repeated twice with two or three replicates each. A nonlinear regression sigmoidal dose-response (variable slope) model was used to estimate concentration inhibiting 50% growth (IC50) values for each derivative.
# [3] = system: Plasmodium falciparum NF-54 strain; assay: In vitro antiplasmodial activity, [3H]hypoxanthine incorporation, NF-54 strain; format: cell-based; settings: 48 h, read-out: IC50 μM ± SD NF-54
# Experimental: as §2, §3
# [4] = system: HepG2-A16 human hepatoma cells; assay: Cytotoxicity, MTT colorimetric test; format: cell-based; settings: for SI (selectivity index): CC50 HepG2/IC50 parasite FCB-2
# Experimental: as §1
# [5] = HepG2-A16 human hepatoma cells, HepG2-A16 cells, MTT, 48 h, read-out: CC50
# [6] = P. falciparum FCB-2 chloroquine-resistant strain, read-out: IC50 μM ± SD FCB-2
# [7] = P. falciparum NF-54 chloroquine-sensitive strain
# [8] = HepG2-A16 cells, MTT, 48 h, read-out: CC50
Compound,"CC50 at 48 h [1, 5] [µM]",antiplasmodial activity (in words) [2],"IC50 [2, 6] [µM]","IC50 [3, 7] [µM]","CC50 at 48 h [1, 8] [µM]",RI (resistance index) [2],SI (selectivity index) [4],"IC50 ([2]; read-out: IC50 μM ± SD FCB-2, P. falciparum FCB-2 chloroquine-resistant strain, 48 h) [µM]",IC50 [3] [µM],melting point [°C],CC50 at 48 h [1] [µM],cytotoxicity (in words) [4],cytotoxicity (in words) ([4]; HepG2-A16 cells),IC50 ([2]; read-out: IC50 μM ± SD FCB-2) [µM]
"C[C@@H]1[C@H](O)[C@@H](C)/C=C/C=C/C=C/C=C/C=C/C=C/C=C/[C@H](O[C@@H]2O[C@H](C)[C@@H](O)[C@H](N)[C@@H]2O)C[C@@H]2O[C@](O)(C[C@@H](O)C[C@@H](O)[C@H](O)CC[C@@H](O)C[C@@H](O)CC(=O)O[C@H]1C)C[C@H](O)[C@H]2C(=O)O [AF-B, amphotericin B, reference compound]",39.6,–,–,–,–,–,–,–,–,–,–,–,–,–
"C[C@@H]1CC[C@@]2(OC1)O[C@H]1C[C@H]3[C@@H]4CC=C5C[C@@H](O)CC[C@]5(C)[C@H]4CC[C@]3(C)[C@H]1[C@@H]2C [Compound 1, (25R)-5-spirosten-3β-ol, reference compound]",–,lacked antiplasmodial activity,> 482,> 482,1110,–,–,–,–,–,–,–,–,–
"CC(=O)[C@H]1CC[C@H]2[C@@H]3CCC4=CC(=O)CC[C@]4(C)[C@H]3CC[C@]12C [Compound 5, 4-Pregnene-3,20-dione, reference compound]",–,displayed antiplasmodial activity,38.2 ± 1.2,25.4 ± 1.6,193,1.5,5.0,–,–,–,–,–,–,–
"CC(=O)[C@@]1(O)CC[C@H]2[C@@H]3CCC4=CC(=O)CC[C@]4(C)[C@H]3CC[C@@]21C [Compound 6, 17-hydroxy-4-pregnene-3,20-dione, reference compound]",> 1140,inactive,–,–,–,1.0,–,> 303,> 303,–,–,–,–,–
"CC1=CC[C@@]2(C)C(=C1)CC[C@H]1[C@@H]3C[C@@H]4O[C@]5(CC[C@@H](C)CO5)[C@@H](C)[C@@H]4[C@@]3(C)CC[C@@H]12 [Compound 7, (25R)-3-Methyl-spirostan-2,4-diene]",–,marginal activity compared to diosgenone,70.4 ± 5.5,34.6 ± 3.3,–,2.0,3.1,–,–,172 to 174,217,–,–,–
"C[C@@H]1CC[C@@]2(OC1)O[C@H]1C[C@H]3[C@@H]4CCC5=CC(O)(Cc6ccccc6)CC[C@]5(C)[C@H]4CC[C@]3(C)[C@H]1[C@@H]2C (stereo partly drawn) [Compound 8, (25R)-3-Benzyl-spirostan-4-en-3-ol]",–,inactive against both P. falciparum strains,> 396,> 396,–,–,–,–,–,203 to 205,> 1980,–,–,–
"Cc1ccc(S(=O)(=O)NN=C2C=C3CCC4C(CCC5(C)C4CC4OC6(CCC(C)CO6)C(C)C45)C3(C)CC2)cc1 [Compound 9, (25R)-3-p-Toluenehydrazine-spirostan-4-ene]",–,marginal activity compared to diosgenone,56.1 ± 0.3,52.5 ± 7.7,–,1.1,–,–,–,148 to 150,> 1170,–,–,–
"C[C@@H]1CC[C@@]2(OC1)O[C@H]1C[C@H]3[C@@H]4CCC56OC5C(=O)CC[C@]6(C)[C@H]4CC[C@]3(C)[C@H]1[C@@H]2C (stereo partly drawn) [Compound 10, (25R)-4,5-Epoxy-spirostan-3-one]",–,marginal activity compared to diosgenone,56.7 ± 6.3,106 ± 7.7,–,0.5,1.8,–,–,184 to 186,101,–,–,–
"C[C@@H]1CC[C@@]2(OC1)O[C@H]1C[C@H]3[C@@H]4CCC5CC(=O)CC[C@]5(C)[C@H]4CC[C@]3(C)[C@H]1[C@@H]2C (stereo partly drawn) [Compound 11, (25R)-Spirostan-3-one]",> 916,inactive against both P. falciparum strains,> 482,> 482,–,–,–,–,–,–,–,–,–,–
"C[C@@H]1CC[C@@]2(OC1)O[C@H]1C[C@H]3[C@@H]4CCC5=CC(=O)C=C[C@]5(C)[C@H]4CC[C@]3(C)[C@H]1[C@@H]2C [Compound 12, (25R)-1,4-Spirostadien-3-one]",–,–,36 ± 2.3,29.2 ± 1.1,–,1.2,–,–,–,181 to 183,> 487,–,–,–
"C[C@@H]1CC[C@@]2(OC1)O[C@H]1C[C@H]3[C@@H]4CCC5=CC(O)CC[C@]5(C)[C@H]4CC[C@]3(C)[C@H]1[C@@H]2C (stereo partly drawn) [Compound 13, (25R)-4-Spirosten-3-ol]",> 2410,marginal activity compared to diosgenone,63.2 ± 0.3,71.9 ± 0.3,–,0.9,–,–,–,–,–,–,–,–
"C[C@@H](CI)CCC(=O)[C@@H](C)[C@H]1C(=O)CC2C3CCC4=CC(=O)CC[C@]4(C)C3CC[C@@]21C (stereo partly drawn) [Compound 15, (25R)-26-Iodine-cholest-4-en-3,16,22-trione]",–,–,2.9 ± 0.3,2.2 ± 0.4,–,1.3,31.1,–,–,148 to 150,90.2,–,–,–
"CC(=O)OC1CC[C@@]2(C)C(=CC[C@H]3[C@@H]4C[C@@H]5O[C@]6(CC[C@@H](C)CO6)[C@@H](C)[C@@H]5[C@@]4(C)CC[C@@H]32)C1 (stereo partly drawn) [Compound 16, (25R)-3-Acetoxy-spirostan-5-ene]",–,neither active,> 438,> 438,–,–,–,–,–,182 to 184,> 2190,nor toxic,–,–
"C[C@@H]1CC[C@@]2(OC1)O[C@H]1C[C@H]3[C@@H]4CC5OC56CC(O)CC[C@]6(C)[C@H]4CC[C@]3(C)[C@H]1[C@@H]2C (stereo partly drawn) [Compound 17, (25R)-5,6-Epoxy-spirostan-3-ol]",–,neither active,> 409,184,–,2.2,–,–,–,97 to 99,> 2050,nor toxic,–,–
"C[C@@H]1CC[C@@]2(OC1)O[C@H]1C[C@H]3[C@@H]4CC=C5C=CCC[C@]5(C)[C@H]4CC[C@]3(C)[C@H]1[C@@H]2C [Compound 19, (25R)-3,5-Spirostadiene]",> 2520,neither active,438 ± 12,370 ± 8.3,–,1.2,–,–,–,–,–,–,nor toxic,–
"CC(=O)O[C@H]1CC[C@@]2(C)C(=CCC3C4C[C@H](OC(C)=O)C(C(C)C5=C(C(C)=O)C[C@@H](C)CO5)[C@@]4(C)CCC32)C1 (stereo partly drawn) [Compound 20, (25R)-23-Acetyl-3,16-diacetoxy-22,23-pyran-cholesta-5,22-diene]",–,neither active,> 380,> 380,–,–,–,–,–,–,> 1900,nor toxic,–,–
"CC(=O)OC1C[C@H]2[C@@H]3CCC4=CC(=O)CC[C@]4(C)[C@H]3CC[C@]2(C)[C@H]1[C@H](C)C(=O)CC[C@@H](C)C=O (stereo partly drawn) [Compound 21, (25R)-16-Acetoxy-4-cholesten-3,22-dione-26-al]",–,–,92.2 ± 12.3,70.8 ± 0.8,–,1.3,4.6,–,–,–,424,–,–,–
"CC(=O)OC1C[C@H]2[C@@H]3CCC4CC(=O)CC[C@]4(C)[C@H]3CC[C@]2(C)[C@H]1[C@H](C)C(=O)CC[C@@H](C)CO (stereo partly drawn) [Compound 22, (25R)-16-Acetoxy-26-hydroxy-cholestan-3,22-dione]",–,–,94.2 ± 5.3,62.1 ± 8.9,–,1.5,0.9,–,–,–,82.4,–,–,–
"CC(=O)OC[C@H](C)CCC(=O)[C@@H](C)[C@H]1C(OC(C)=O)C[C@H]2[C@@H]3CCC4=CC(=O)CC[C@]4(C)[C@H]3CC[C@]12C (stereo partly drawn) [Compound 23, (25R)-16,26-Diacetoxy-4-cholesten-3,22-dione]",–,–,17.3 ± 1.4,0.6 ± 0.9,–,28.8,16.2,–,–,–,281,less toxic,–,–
C[C@H](C(=O)CC[C@@H](C)C=O)[C@H]1C(=O)C[C@H]2[C@@H]3CCC4=CC(=O)CC[C@]4(C)[C@H]3CC[C@]12C [Compound 25],–,–,–,–,45.2,1.3,0.4,–,95.9 ± 8.3,–,–,–,–,123 ± 12.8
